Drawing on PubChem BioAssay (NCI), this text covers TGI for 8 molecules.

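The compound was tested at five concentrations on cells cultured in 96-well plates, with a 48-hour exposure period. TGI is the concentration that stops growth completely.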 Some results are limits rather than exact numbers.

Holding throughout (assay): NCI anticancer screen, dose series, 48 h
Test [1] relates to KM12 colon.
Test [2] concerns RXF 393 renal.
In test [3] the test system is HOP-62 NSCLC.
Test [4] has as its system OVCAR-5 ovarian.
The test system of test [5] is UO-31 renal.
Test [6] deals with EKVX NSCLC.
Test [7] concerns OVCAR-8 ovarian.
Test [8] relates to A549 NSCLC.
For test [9], the system named is HOP-92 NSCLC.
Test [10] relates to 786-0 renal.
The test system of test [11] is HL-60(TB) leukemia.
In test [12] the test system is A498 renal.
Test [13] concerns NCI-H522 lung.
For test [14], the system named is RPMI-8226 leukemia.
The subject of test [15] is SK-MEL-5 melanoma.
In test [16] the test system is PC-3 prostate.
Test [17] concerns COLO 205 colon.
For test [18], the system named is SN12C renal.

As for `CCCCN(Cc1ccccc1)C(=NC#N)N(Cc1ccccc1)Cc1ccccc1`, the TGI in test [1] was 54 µM; in test [2], 63.8 µM; in [3], 75.3 µM; in [4], more than 100 µM; in [5] it was more than 52.4 µM; in test [6], more than 100 µM. In addition, the TGI in [7] was more than 100 µM; in test [8] it was more than 100 µM; in test [9], 53.1 µM; in test [10], 56.2 µM; in [11], more than 100 µM; in test [12], more than 100 µM. The TGI in [13] is 40.6 µM; in [14], 49.8 µM; in test [15], 29.4 µM; in [16], 32.8 µM; in [17], 32.2 µM; in test [18] it was more than 80.5 µM.

With `Nc1nc2n[nH]nc2c(=O)[nH]1`, the TGI in [1] was more than 100 µM; in test [2], 2.95 µM; in test [3] it was 9.42 µM; in test [4], more than 88.4 µM; in test [5], 29.3 µM; in [6], more than 100 µM. Also, the TGI was more than 100 µM in test [7]; more than 100 µM in test [8]; 38.5 µM in test [9]; more than 100 µM in test [10]; 16.5 µM in test [11]; 32.8 µM in [12]. For the same molecule, the TGI in test [13] was 40.9 µM; in test [14], 15.7 µM; in test [15], 13.8 µM; in test [16], more than 100 µM; in test [17] it was 24.3 µM; in [18], more than 100 µM.

For the molecule `CC1=C(C)C1[N+](=O)[O-]`, the TGI in [1], in test [2], in test [3], in test [4], in [5] and in test [6] was more than 100 µM throughout. The TGI in [7], in test [8], in test [9], in test [10], in [11] and in [12] was more than 100 µM each time. For the same molecule, the TGI in test [13], in test [14], in [15], in test [16], in test [17] and in test [18] was more than 100 µM in each case.

As to `N#Cc1cc(-c2nc3c(F)cccc3s2)ccc1N`, the TGI was more than 100 µM in [1]; more than 100 µM in [2]; more than 100 µM in test [3]; more than 100 µM in test [4]; more than 100 µM in [5]; 0.894 µM in test [6]. The TGI in [7], in [8], in [9], in [10], in test [11] and in [12] was more than 100 µM in each case. Moreover, the TGI in [13], in test [14], in test [15], in test [16], in test [17] and in [18] was more than 100 µM throughout.

As to `O=[N+]([O-])c1cc2c(c([N+](=O)[O-])c1)NCc1ccccc1O2`, the TGI in test [1], in [2], in test [3], in [4], in [5] and in [6] was more than 100 µM each time. Moreover, the TGI in test [7], in test [8], in test [9], in test [10], in [11] and in test [12] was more than 100 µM each time. For the same molecule, the TGI in test [13], in test [14], in test [15], in [16], in test [17] and in test [18] was more than 100 µM throughout.

Take `O=C1C=CC2(O)OCCN(CCO)C2=C1` (centres undefined) (tested in a mixture with another compound): the TGI in test [1], in [2], in test [3], in test [4], in test [5] and in test [6] was more than 100 µM each time. The TGI in test [7], in test [8], in [9], in [10], in test [11] and in test [12] was more than 100 µM in each case. In addition, the TGI in test [13], in [14], in test [15], in test [16], in [17] and in test [18] was more than 100 µM each time.

Regarding `CCN(C(C)=O)c1cnc(/C=N/NC(N)=S)c2ccccc12`, the TGI in test [1] was more than 100 µM; in [2] it was more than 100 µM; in [3] it was more than 60.1 µM; in test [4] it was more than 100 µM; in test [5] it was 7.85 µM; in [6], more than 100 µM. In addition, the TGI in [7] was more than 34.6 µM; in test [8] it was more than 88.3 µM; in test [9], more than 100 µM; in test [10], more than 26.6 µM; in test [11], more than 28.5 µM; in test [12], more than 91.6 µM. Besides, the TGI in [13] was more than 36.2 µM; in test [14], more than 100 µM; in test [15] it was more than 67.1 µM; in [16] it was more than 100 µM; in [17], more than 100 µM; in test [18] it was more than 57.6 µM.

Consider `O=P1(c2ccccc2)C(c2ccccc2)=CC=C1c1ccccc1`, for which the TGI in test [1] is 50.1 µM; in [2], more than 100 µM; in test [3] it was more than 100 µM; in test [4], more than 100 µM; in test [5], more than 100 µM; in test [6], more than 100 µM. The TGI is 43.4 µM in [7]; more than 100 µM in [8]; 51.1 µM in [9]; more than 100 µM in test [10]; 9.31 µM in test [11]; more than 100 µM in test [12]. In addition, the TGI in test [13] was 65.2 µM; in test [14], 19.4 µM; in test [15] it was 28.4 µM; in test [16], 62.8 µM; in [17], 46.1 µM; in test [18], more than 100 µM.
